Results reported in patent publication US20040024068A1, “Antimicrobial compounds” (priority 1998, published 2004).
Converted amounts (≈) assume the structure as drawn. Where two headings read alike, the source gives them in different places.

Experiments:
[1] = system: E. coli strain AGT11 versus isogenic parent AG100; assay: Isoniazid resistance of E. coli in the presence of 250 μM hydrogen peroxide; assay type: cell-based, Escherichia coli; details: triclosan-resistant strain AGT11; 250 μM hydrogen peroxide present
[2] = system: Mycobacterium smegmatis mc^2155 and InhA mutants; assay: MIC on agar plates by 2-fold serial dilutions, M. smegmatis strains; assay type: cell-based; details: for MIC: Mycolicibacterium smegmatis
[3] = system: E. coli strains AG100, AG100A, AGT11, AGT11K; assay: Inhibition of growth rate in broth (liquid) culture; assay type: cell-based, Escherichia coli; details: for IC50: Escherichia coli, 1 h, 1 h after addition
[4] = system: hypersusceptible host strain AG100A bearing pBR322-derived plasmids; assay: Triclosan MIC encoded by plasmid clones in hypersusceptible host AG100A; assay type: cell-based; details: Escherichia coli
[5] = system: clinical strains of E. coli; assay: Triclosan MIC of clinical strains from blood samples; assay type: cell-based; details: Escherichia coli
M. tuberculosis = details: cited from earlier work
M. smegmatis = details: cited from earlier work
[6] = system: E. coli strains AG100, AG100A, AGT11, AGT11K; assay: Cell lysis in broth (liquid) culture (loss of absorbance with loss of viable cfu); assay type: cell-based, Escherichia coli
E. coli K-12 derivatives = assay: microbe, parasite or virus in culture; assay type: cell-based, Escherichia coli; details: for MIC: Escherichia coli
[7] = system: E. coli K12 strain AG100 and triclosan resistant mutants; assay: Triclosan MIC by agar serial dilution plates (2.0 fold steps), AG100 and mutants selected on triclosan; assay type: cell-based, Escherichia coli; details: for MIC: agar dilution plates

NNC(=O)c1ccncc1 [isoniazid]
isoniazid resistance relative to isogenic parent AG100 [1]: several times
MIC ([2]; MC^2155): 7 µg/mL (≈ 51 µM)
relative MIC (S.D.) isoniazid (7H9) ([2]; strain mc^2155/pMD31::inhA^+): >64
relative MIC (S.D.) isoniazid (7H9) ([2]; strain mc^2155 wild type): 1.0

Oc1cc(Cl)ccc1Oc1ccc(Cl)cc1Cl [triclosan, 2,4,4′-trichlor-2′-hydroxydiphenyl ether]
IC50 ([3]; read-out: Concentration of triclosan which inhibited growth rate 50%, strain AG100 (wild type), OD530): ~0.15 µg/mL (≈ 0.518 µM)
IC50 ([3]; read-out: Concentration of triclosan which inhibited growth rate 50%, strain AG100A (ΔacrAB)): ~0.02 µg/mL (≈ 0.0691 µM)
Concentration of triclosan which inhibited growth rate 90% ([3]; strain AG100 (wild type)): 0.6 µg/mL
Concentration of triclosan which inhibited growth rate 90% ([3]; strain AG100A (ΔacrAB)): 0.05 µg/mL
MIC ([4]; clones pLYT1 through pLYT10 (AGT11 library) in hypersensitive strain AG100A): ~4 µg/mL (≈ 13.8 µM)
MIC ([4]; vector alone (pBR322) in AG100A): 0.005 to 0.02 µg/mL (≈ 0.0173 to 0.0691 µM)
MIC ([5]; read-out: mean triclosan MIC, multiply resistant clinical strains E3, E19, HO99 overexpressing marA or soxS): 0.33 µg/mL
MIC ([5]; read-out: mean triclosan MIC, remaining 26 multiply resistant clinical strains overexpressing neither marA or soxS): 0.13 µg/mL
MIC ([5]; read-out: mean triclosan MIC, 14 of 15 antibiotic-susceptible clinical strains (Series S)): 0.09 µg/mL
MIC ([5]; read-out: triclosan MIC, multiply resistant clinical strain E10, overexpressing neither marA nor soxS): 0.38 µg/mL
MIC ([5]; read-out: triclosan MIC, multiply resistant clinical strain HO 17, overexpressing marA): 0.15 µg/mL
MIC ([5]; read-out: triclosan MIC, susceptible clinical strain S20, overexpressing marA): 0.27 µg/mL
susceptibility to triclosan (M. tuberculosis): not sensitive
susceptibility to triclosan (M. smegmatis): susceptible
MIC ([2]; MC^2155, mc^2155, triclosan in 7H9): 14 µg/mL (≈ 48.4 µM)
MIC ([2]; MC^2155, mc^2155, triclosan in LB, mean (+/− S.D.) of 4-5 experiments): 0.61 µg/mL (≈ 2.11 µM)
Concentration of triclosan which caused lysis ([6]; strain AG100 (wild type), within 2 h): 8 µg/mL
amount of triclosan required to give lysis ([6]; strains AG100, AG100A and AGT11K together): 2 to 8 µg/mL
MIC (E. coli K-12 derivatives; AG100, span of Tables 3-5, read-out: MIC (determined on agar)): 0.17 to 0.28 µg/mL (≈ 0.587 to 0.967 µM)
MIC (E. coli K-12 derivatives; strain AG100, mean of two to five determinations, read-out: MIC): 0.17 µg/mL (≈ 0.587 µM)
MIC (E. coli K-12 derivatives; strain GC4488, read-out: MIC): 0.08 µg/mL (≈ 0.276 µM)
MIC (E. coli K-12 derivatives; strain HH180, read-out: MIC): 0.07 µg/mL (≈ 0.242 µM)
change of triclosan MIC by overexpression of acrAB (E. coli K-12 derivatives; strain AG100B (mutation in acrR) vs AG100): doubled
MIC ([7]; Escherichia coli, strain AG100 (wild-type)): 0.28 µg/mL (≈ 0.967 µM)
MIC ([7]; Escherichia coli, strain AG100A (AG100 ΔacrAB::kan)): 0.018 µg/mL (≈ 0.0622 µM)
MIC ([7]; Escherichia coli, strain AGT11 (AG100 fabI G93V)): 41 µg/mL (≈ 142 µM)
MIC ([7]; Escherichia coli, strain AGT11K (AGT11 ΔacrAB::kan)): 2 to 4 µg/mL (≈ 6.91 to 13.8 µM)
MIC of strain divided by MIC of AG1000 ([7]; strain AG100 (fabI none), inactivated locus acrAB): 0.063
MIC of strain divided by MIC of AG1000 ([7]; strain AG100 (fabI none), inactivated locus mar): 0.71
MIC of strain divided by MIC of AG1000 ([7]; strain AG100 (fabI none), inactivated locus none): 1
MIC ([7]; strain AG100 (wild-type)): 0.28 ± 0.04 µg/mL (≈ 0.967 µM)
MIC of strain divided by MIC of AG1000 ([7]; strain AGT7 (fabI mutation NI), inactivated locus none): 1.7
MIC of strain divided by MIC of AG1000 ([7]; strain AGT7, inactivated locus acrAB): 0.071
MIC of strain divided by MIC of AG1000 ([7]; strain AGT7, inactivated locus mar): 1.7
MIC of strain divided by MIC of AG1000 ([7]; strain AGT8 (fabI mutation NI), inactivated locus none): 4
MIC of strain divided by MIC of AG1000 ([7]; strain AGT8, inactivated locus acrAB): 0.25
MIC of strain divided by MIC of AG1000 ([7]; strain AGT8, inactivated locus mar): 3.4
MIC of strain divided by MIC of AG1000 ([7]; strain AGT9 (fabI mutation NI), inactivated locus none): 2.3
MIC of strain divided by MIC of AG1000 ([7]; strain AGT9, inactivated locus acrAB): 0.32
MIC of strain divided by MIC of AG1000 ([7]; strain AGT9, inactivated locus mar): 2.3
MIC ([7]; strain AGT11K (AGT11 ΔacrAB::kan)): 3.2 µg/mL (≈ 11.1 µM)
MIC of strain divided by MIC of AG1000 ([7]; strain AGT21 (fabI G93V), inactivated locus acrAB): 11.4
MIC of strain divided by MIC of AG1000 ([7]; strain AGT21 (fabI G93V), inactivated locus mar): 145
MIC of strain divided by MIC of AG1000 ([7]; strain AGT21 (fabI G93V), inactivated locus none): 145
MIC of strain divided by MIC of AG1000 ([7]; strain AGT23 (fabI M159T), inactivated locus acrAB): 1.7
MIC of strain divided by MIC of AG1000 ([7]; strain AGT23 (fabI M159T), inactivated locus none): 11.4
MIC of strain divided by MIC of AG1000 ([7]; strain AGT25 (fabI F203L), inactivated locus acrAB): 0.57
MIC of strain divided by MIC of AG1000 ([7]; strain AGT25 (fabI F203L), inactivated locus none): 4.6
